Reference: patent US9981972B2, “N-hydroxy bicyclic hydantoin carbamates as tools for identification of serine hydrolase targets” (ABIDE THERAPEUTICS, INC., priority 2014, dated 2018)

Tests used:
Experiment in all cases: Gel-based competitive ABPP in vitro, mouse brain membrane proteome
Type in all cases: biochemical
Conditions in all cases: mouse brain (mem) proteome
ABHD3 = target: T1, ABHD3 (Mus musculus, UniProt Q91ZH7)
T1 construct: from tissue; host or cells: mouse brain, membrane fraction
T1 sequence (Q91ZH7 1-411): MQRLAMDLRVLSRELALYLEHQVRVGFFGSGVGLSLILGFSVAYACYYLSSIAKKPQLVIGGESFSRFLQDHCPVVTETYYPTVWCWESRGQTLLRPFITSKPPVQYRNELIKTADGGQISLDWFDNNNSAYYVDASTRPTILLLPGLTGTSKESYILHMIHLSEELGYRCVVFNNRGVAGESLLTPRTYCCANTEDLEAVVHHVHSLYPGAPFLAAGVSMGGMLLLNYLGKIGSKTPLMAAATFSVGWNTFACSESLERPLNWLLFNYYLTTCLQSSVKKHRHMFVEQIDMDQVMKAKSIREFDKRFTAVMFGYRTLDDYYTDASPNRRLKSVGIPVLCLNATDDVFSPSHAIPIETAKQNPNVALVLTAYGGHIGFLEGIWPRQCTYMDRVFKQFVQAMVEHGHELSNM
Method: (§1) Assay Overview: The purpose of this assay was to determine whether test compounds can inhibit LYPLA1 and LYPLA2 in a complex proteomic lysate and to assess anti-target inhibition using a competitive activity-based proteomic profiling (ABPP) assay. In this assay, a complex proteome endogenously expressing LYPLA1/2 was incubated with test compound followed by reaction with a rhodamine-conjugated fluorophosphonate (FP-Rh) serine-hydrolase specific activity-based probe. The reaction products were separated by SDS-PAGE and visualized in-gel using a flatbed fluorescence scanner. The percentage activity remaining was determined by measuring the integrated optical density of the bands. […] Percent inhibition was calculated relative to a DMSO (no compound) control.
(§2) Protocol Summary: Mouse brain membrane proteome (50 μL reaction volume, 1 mg/mL in DPBS) was treated with 0.1-100 μM test compound (1 μL of a 50× stock in DMSO) for 30 minutes at 37° C. FP-Rh (1 μL of 50× stock in DMSO, Thermo #88318) was added to a final concentration of 2 μM. The reactions were incubated for 30 minutes at 25° C., quenched with 16 μL 4×SDS-PAGE loading buffer (reducing), separated by SDS-PAGE and visualized by in-gel fluorescent scanning. The percentage activity remaining was determined by measuring the integrated optical density of the bands relative to a DMSO-only (no compound) control. Assay Cutoff: Compounds with ≥50% inhibition of targets at 1 μM test compound concentration were considered active.

ABHD12 = target: T2, ABHD12 (Mus musculus, UniProt Q99LR1)
T2 construct: from tissue; host or cells: mouse brain, membrane fraction
T2 sequence (Q99LR1 1-398): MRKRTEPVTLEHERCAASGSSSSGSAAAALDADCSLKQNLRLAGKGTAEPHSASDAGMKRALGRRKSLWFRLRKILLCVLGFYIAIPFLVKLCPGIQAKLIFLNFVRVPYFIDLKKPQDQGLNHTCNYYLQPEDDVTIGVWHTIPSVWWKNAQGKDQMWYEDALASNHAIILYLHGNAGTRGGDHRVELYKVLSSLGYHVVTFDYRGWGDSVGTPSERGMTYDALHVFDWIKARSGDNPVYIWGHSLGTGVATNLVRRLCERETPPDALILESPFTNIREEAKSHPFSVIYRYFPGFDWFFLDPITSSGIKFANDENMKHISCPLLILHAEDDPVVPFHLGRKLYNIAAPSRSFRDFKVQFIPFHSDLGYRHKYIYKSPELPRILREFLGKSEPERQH
Method: as §1, §2

PLA2G7 = target: T3, PLA2G7 (Mus musculus, UniProt Q60963)
T3 construct: from tissue; host or cells: mouse brain, membrane fraction
T3 sequence (Q60963 22-440): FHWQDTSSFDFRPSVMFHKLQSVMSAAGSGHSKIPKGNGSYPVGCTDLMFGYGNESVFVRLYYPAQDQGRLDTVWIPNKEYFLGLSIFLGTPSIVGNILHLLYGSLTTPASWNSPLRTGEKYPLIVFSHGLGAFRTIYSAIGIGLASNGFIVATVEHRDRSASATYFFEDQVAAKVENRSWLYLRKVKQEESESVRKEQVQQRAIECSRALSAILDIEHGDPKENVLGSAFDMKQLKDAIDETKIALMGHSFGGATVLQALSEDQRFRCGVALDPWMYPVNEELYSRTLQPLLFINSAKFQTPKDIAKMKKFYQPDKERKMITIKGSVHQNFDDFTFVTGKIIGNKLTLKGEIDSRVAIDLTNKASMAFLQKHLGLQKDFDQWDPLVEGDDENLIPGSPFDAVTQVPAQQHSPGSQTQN
Method: as §1, §2

LYPLA2 = target: T4, LYPLA2 (Mus musculus, UniProt Q9WTL7)
T4 construct: a complex proteome endogenously expressing LYPLA1/2 was incubated with test compound; from tissue; host or cells: mouse brain, membrane fraction
In short: (§3)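 Mouse brain membrane proteome (1 mg/mL in DPBS) was treated with compound (0.1-100 μM) for 30 min at 37 °C, then labeled with FP-Rh (2 μM final, 30 min, 25 °C). Bands were resolved by SDS-PAGE and scanned in-gel, with inhibition taken from band optical density versus DMSO. Targets counted as active or anti-targets at ≥50% inhibition.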

LYPLA1 = target: T5, LYPLA1 (Mus musculus, UniProt P97823)
T5 construct: a complex proteome endogenously expressing LYPLA1/2 was incubated with test compound; from tissue; host or cells: mouse brain, membrane fraction
In short: as §3

T5 sequence (P97823 whole entry): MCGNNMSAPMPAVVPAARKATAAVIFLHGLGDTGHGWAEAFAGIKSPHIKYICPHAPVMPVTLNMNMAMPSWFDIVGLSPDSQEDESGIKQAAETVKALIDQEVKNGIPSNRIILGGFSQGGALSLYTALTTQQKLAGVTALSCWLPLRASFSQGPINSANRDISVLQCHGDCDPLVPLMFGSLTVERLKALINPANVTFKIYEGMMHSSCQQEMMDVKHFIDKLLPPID
T4 sequence (Q9WTL7 whole entry): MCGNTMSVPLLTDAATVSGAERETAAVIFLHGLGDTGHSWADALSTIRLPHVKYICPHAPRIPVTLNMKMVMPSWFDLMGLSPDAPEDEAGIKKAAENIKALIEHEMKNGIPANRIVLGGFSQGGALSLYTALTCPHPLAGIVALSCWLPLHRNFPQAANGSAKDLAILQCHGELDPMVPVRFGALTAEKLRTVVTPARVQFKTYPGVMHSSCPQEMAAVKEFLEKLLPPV

SMILES | ABHD3 in vitro enzyme activity, % @ 10 μM (ABHD3) [% @] | ABHD12 in vitro enzyme activity, % @ 10 μM (ABHD12) [% @] | PLA2G7 in vitro enzyme activity, % @ 10 μM (PLA2G7) [% @] | LYPLA2 in vitro enzyme activity, % @ 1 μM (LYPLA2) [% @] | LYPLA1 in vitro enzyme activity, % @ 1 μM (LYPLA1) [% @] | PLA2G7 in vitro enzyme activity, % @ 1 μM (PLA2G7) [% @] | LYPLA2 in vitro enzyme activity, % @ 10 μM (LYPLA2) [% @] | LYPLA1 in vitro enzyme activity, % @ 10 μM (LYPLA1) [% @]
O=C(ON1C(=O)[C@H]2CN(C(=O)N3CCOCC3)CCN2C1=O)N1CCC(CCc2ccc(Cl)cc2)CC1 [Compound 51, (R)-7-(morpholine-4-carbonyl)-1,3-dioxohexahydroimidazo[1,5-a]pyrazin-2(3H)-yl 4-(4-chloro-phenethyl)piperidine-1-carboxylate] | 0 | 0 | 100 | 100 | 100 | – | – | –
C#Cc1ccc(CCC2CCN(C(=O)ON3C(=O)[C@H]4CN(C(=O)N5CCOCC5)CCN4C3=O)CC2)cc1 [Compound 49, (R)-7-(morpholine-4-carbonyl)-1,3-dioxo-hexahydroimidazo[1,5-a]pyrazin-2(3H)-yl 4-(4-ethynylphenethyl)piperidine-1-carboxylate] | 0 | 0 | 100 | 75 | 75 | – | – | –
C#CCOc1ccc(N2CCN(C(=O)ON3C(=O)[C@@H]4CN(CC5CCN(Cc6ccccc6)CC5)CCN4C3=O)CC2)cc1 [Compound 46, (S)-7-((1-benzylpiperidin-4-yl)methyl)-1,3-dioxo-hexahydroimidazo[1,5-a]pyrazin-2(3H)-yl 4-(4-(prop-2-ynyloxy)phenyl)piperazine-1-carboxylate] | 0 | 0 | – | – | – | 100 | 50 | 50
C#CCOc1ccc(N2CCN(C(=O)ON3C(=O)[C@@H]4CN(Cc5ccc(Oc6ccccc6)cc5)CCN4C3=O)CC2)cc1 [Compound 44, (S)-1,3-dioxo-7-(4-phenoxybenzyl)-hexahydroimidazo[1,5-a]pyrazin-2(3H)-yl 4-(4-(prop-2-ynyloxy)phenyl)piperazine-1-carboxylate] | 0 | 0 | – | – | – | 100 | 0 | 0
COc1ccc(N2CCN(C(=O)ON3C(=O)C4CN(CC5CCN(Cc6ccccc6)CC5)CCN4C3=O)CC2)cc1 (stereo not drawn) [Compound 52, 7-((1-benzylpiperidin-4-yl)methyl)-1,3-dioxo-hexahydroimidazo[1,5-a]pyrazin-2(3H)-yl 4-(4-methoxyphenyl)piperazine-1-carboxylate] | 0 | 0 | – | – | – | 50 | 0 | 0
C#Cc1ccc(CCC2CCN(C(=O)ON3C(=O)C4CN(C(=O)N5CCOCC5)CCN4C3=O)CC2)cc1 (stereo not drawn) [Compound 53, 7-(morpholine-4-carbonyl)-1,3-dioxo-hexahydroimidazo[1,5-a]pyrazin-2(3H)-yl 4-(4-ethynylphenethyl)piperidine-1-carboxylate] | 0 | 50 | 0 | 75 | 75 | – | – | –
